The experiment concerns BDF1 mice, s.c. Lewis lung carcinoma, T/C %. Put plainly: NCI In Vivo Anticancer Drug Screen. Data for tumor model Lewis Lung Carcinoma (subcutaneous) in B6D2F1 (BDF1) mice. Put shortly: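 Readout: survival or tumor size, expressed as treated (T) over vehicle control (C). Transplantable tumor implanted in mice; compound given to the treated group.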
Where [1] appears, read: endpoint: median survival time, dose: 12.5 mg/kg/injection, schedule: Q01DX009 (ip), vehicle: Klucel (hydroxypropylcellulose) (HPC), higher = longer survival.

We go through eleven compounds from PubChem BioAssay AID270 (DTP/NCI, 2004).

Several values for one entry are separate records, joined by “and”; a condition that tells them apart may be missing. Equal values may be shown once. Records with an inconclusive call do not appear.

`O=C1c2ccccc2C(=O)c2c(NCCNCCO)ccc(NCCNCCO)c21`: the T/C is 120 % of control (endpoint: median survival time, dose: 0.25 mg/kg/injection, schedule: Q01DX009 (ip), vehicle: Klucel (hydroxypropylcellulose) (HPC), higher = longer survival); 106 % of control (endpoint: median survival time, dose: 0.25 mg/kg/injection, schedule: Q01DX009 (ip), vehicle: water, higher = longer survival); 123 % of control (endpoint: median survival time, dose: 0.5 mg/kg/injection, schedule: Q01DX009 (ip), vehicle: Klucel (hydroxypropylcellulose) (HPC), higher = longer survival); 86 % of control (endpoint: median survival time, dose: 0.5 mg/kg/injection, schedule: Q01DX009 (ip), vehicle: saline with Tween-80, higher = longer survival); 114 % of control (endpoint: median survival time, dose: 0.5 mg/kg/injection, schedule: Q01DX009 (ip), vehicle: saline, higher = longer survival); 109 % of control (endpoint: median survival time, dose: 0.5 mg/kg/injection, schedule: Q01DX009 (ip), vehicle: water, higher = longer survival). For the same compound, the T/C (endpoint: median survival time, dose: 1.0 mg/kg/injection, schedule: Q01DX009 (ip), vehicle: Klucel (hydroxypropylcellulose) (HPC), higher = longer survival) is 101 % of control; the T/C (endpoint: median survival time, dose: 1.0 mg/kg/injection, schedule: Q01DX009 (ip), vehicle: saline with Tween-80, higher = longer survival) was 115 % of control; the T/C (endpoint: median survival time, dose: 1.0 mg/kg/injection, schedule: Q01DX009 (ip), vehicle: saline, higher = longer survival) is 92 % of control and 94 % of control and 108 % of control; the T/C (endpoint: median survival time, dose: 1.0 mg/kg/injection, schedule: Q01DX009 (ip), vehicle: water, higher = longer survival) is 89 % of control; the T/C (endpoint: median survival time, dose: 2.0 mg/kg/injection, schedule: Q01DX009 (ip), vehicle: Klucel (hydroxypropylcellulose) (HPC), higher = longer survival) was 89 % of control; the T/C (endpoint: median survival time, dose: 2.0 mg/kg/injection, schedule: Q01DX009 (ip), vehicle: acid diluted with saline, higher = longer survival) was 89 % of control. For the same compound, the T/C by setting is: (endpoint: median survival time, dose: 2.0 mg/kg/injection, schedule: Q01DX009 (ip), vehicle: saline with Tween-80, higher = longer survival) 95 % of control; (endpoint: median survival time, dose: 2.0 mg/kg/injection, schedule: Q01DX009 (ip), vehicle: saline, higher = longer survival) 102 % of control; (endpoint: median survival time, dose: 2.0 mg/kg/injection, schedule: Q01DX009 (ip), vehicle: water, higher = longer survival) 96 % of control and 115 % of control; (endpoint: median survival time, dose: 4.0 mg/kg/injection, schedule: Q01DX009 (ip), vehicle: acid diluted with saline, higher = longer survival) 95 % of control; (endpoint: median survival time, dose: 4.0 mg/kg/injection, schedule: Q01DX009 (ip), vehicle: other, higher = longer survival) 106 % of control; (endpoint: median survival time, dose: 4.0 mg/kg/injection, schedule: Q01DX009 (ip), vehicle: saline, higher = longer survival) 91 % of control. Moreover, the T/C (endpoint: median survival time, dose: 4.0 mg/kg/injection, schedule: Q01DX009 (ip), vehicle: water, higher = longer survival) is 88 % of control and 105 % of control; the T/C (endpoint: median survival time, dose: 8.0 mg/kg/injection, schedule: Q01DX009 (ip), vehicle: Klucel (hydroxypropylcellulose) (HPC), higher = longer survival) is 109 % of control and 120 % of control; the T/C (endpoint: median survival time, dose: 8.0 mg/kg/injection, schedule: Q01DX009 (ip), vehicle: acid diluted with saline, higher = longer survival) was 90 % of control; the T/C (endpoint: median survival time, dose: 8.0 mg/kg/injection, schedule: Q01DX009 (ip), vehicle: other, higher = longer survival) is 103 % of control; the T/C (endpoint: median survival time, dose: 8.0 mg/kg/injection, schedule: Q01DX009 (ip), vehicle: saline, higher = longer survival) is 95 % of control; the T/C (endpoint: median survival time, dose: 8.0 mg/kg/injection, schedule: Q01DX009 (ip), vehicle: water, higher = longer survival) was 88 % of control. Further, the T/C is 97 % of control (endpoint: median survival time, dose: 10.0 mg/kg/injection, schedule: Q## X004 (ip), vehicle: saline, higher = longer survival); 107 % of control (endpoint: median survival time, dose: 16.0 mg/kg/injection, schedule: Q01DX009 (ip), vehicle: Klucel (hydroxypropylcellulose) (HPC), higher = longer survival); 100 % of control (endpoint: median survival time, dose: 16.0 mg/kg/injection, schedule: Q01DX009 (ip), vehicle: acid diluted with saline, higher = longer survival); 99 % of control (endpoint: median survival time, dose: 16.0 mg/kg/injection, schedule: Q01DX009 (ip), vehicle: saline, higher = longer survival); 102 % of control (endpoint: median survival time, dose: 16.0 mg/kg/injection, schedule: Q01DX009 (ip), vehicle: water, higher = longer survival); 93 % of control (endpoint: median survival time, dose: 20.0 mg/kg/injection, schedule: Q## X004 (ip), vehicle: saline, higher = longer survival). Also, the T/C (endpoint: median survival time, dose: 40.0 mg/kg/injection, schedule: Q## X004 (ip), vehicle: saline, higher = longer survival) is 93 % of control.
Turning to `O=C(Nc1ccc(C2=NCCN2)cc1)c1ccc(C(=O)Nc2ccc(C3=NCCN3)cc2)c(Cl)c1`, the T/C by setting is: (endpoint: mean tumor weight, dose: 5.0 mg/kg/injection, schedule: Q01DX011 (ip), vehicle: carboxymethylcellulose (CMC), higher = larger tumour) 73 % of control; (endpoint: mean tumor weight, dose: 10.0 mg/kg/injection, schedule: Q01DX011 (ip), vehicle: carboxymethylcellulose (CMC), higher = larger tumour) 51 % of control; (endpoint: mean tumor weight, dose: 20.0 mg/kg/injection, schedule: Q01DX011 (ip), vehicle: carboxymethylcellulose (CMC), higher = larger tumour) 81 % of control.
For `CC[CH2][Pb]([CH2]CC)([CH2]CC)[N]1C(=O)c2ccccc2C1=O`, the T/C is 96 % of control (endpoint: median survival time, dose: 3.13 mg/kg/injection, schedule: Q01DX009 (ip), vehicle: Klucel (hydroxypropylcellulose) (HPC), higher = longer survival); 87 % of control (endpoint: median survival time, dose: 6.25 mg/kg/injection, schedule: Q01DX009 (ip), vehicle: Klucel (hydroxypropylcellulose) (HPC), higher = longer survival); 102 % of control under setting [1].
Regarding `CN(N=O)C(=O)NC1CCOCC1`, for the setting “endpoint: median survival time, dose: 475.0 mg/kg/injection, schedule: Q01DX001 (ip), vehicle: saline with Tween-80, higher = longer survival”, the T/C is 108 % of control.
In the case of `C/C=C(\C)C(=O)OC1C(C)C2(O)C(C=C(CO)CC3(O)C(=O)C(C)=CC32)C2C(C)(C)C12OC(=O)CCCCCCCCC` (stereo not given), the T/C (endpoint: median survival time, dose: 0.13 mg/kg/injection, schedule: Q01DX009 (ip), vehicle: saline + alcohol, higher = longer survival) is 103 % of control; the T/C (endpoint: median survival time, dose: 0.25 mg/kg/injection, schedule: Q01DX009 (ip), vehicle: saline + alcohol, higher = longer survival) was 95 % of control; the T/C (endpoint: median survival time, dose: 0.5 mg/kg/injection, schedule: Q01DX009 (ip), vehicle: saline + alcohol, higher = longer survival) is 92 % of control.
As for `[N-]=[N+]=CC(=O)CCC(N)C(=O)O` (stereo not given), the T/C was 121 % of control (endpoint: median survival time, dose: 0.1 mg/kg/injection, schedule: Q01DX009 (ip), vehicle: saline, higher = longer survival); 110 % of control (endpoint: median survival time, dose: 0.2 mg/kg/injection, schedule: Q01DX009 (ip), vehicle: saline, higher = longer survival); 120 % of control (endpoint: median survival time, dose: 94.0 mg/kg/injection, schedule: Q01DX001 (ip), vehicle: saline, higher = longer survival); 107 % of control (endpoint: median survival time, dose: 210.0 mg/kg/injection, schedule: Q01DX001 (ip), vehicle: saline, higher = longer survival).
As to `O=NN(CCCl)C(=O)N[C@H]1CCCC[C@@H]1Cl`, the T/C is, setting by setting: (endpoint: median survival time, dose: 9.0 mg/kg/injection, schedule: Q01DX001 (ip), vehicle: Klucel (hydroxypropylcellulose) (HPC), higher = longer survival) 112 % of control; (endpoint: median survival time, dose: 11.0 mg/kg/injection, schedule: Q01DX001 (ip), vehicle: gum acacia, higher = longer survival) 114 % of control; (endpoint: median survival time, dose: 17.0 mg/kg/injection, schedule: Q01DX001 (ip), vehicle: gum acacia, higher = longer survival) 107 % of control; (endpoint: median survival time, dose: 18.0 mg/kg/injection, schedule: Q01DX001 (ip), vehicle: Klucel (hydroxypropylcellulose) (HPC), higher = longer survival) 124 % of control; (endpoint: median survival time, dose: 25.0 mg/kg/injection, schedule: Q01DX001 (ip), vehicle: gum acacia, higher = longer survival) 95 % of control; (endpoint: median survival time, dose: 25.0 mg/kg/injection, schedule: Q04DX004 (ip), vehicle: gum acacia, higher = longer survival) 172 % of control. In addition, the T/C was 159 % of control (endpoint: median survival time, dose: 45.0 mg/kg/injection, schedule: Q07DX002 (ip), vehicle: gum acacia, higher = longer survival); 122 % of control (endpoint: median survival time, dose: 72.0 mg/kg/injection, schedule: Q01DX001 (ip), vehicle: Klucel (hydroxypropylcellulose) (HPC), higher = longer survival); 68 % of control (endpoint: median tumor weight (est.), dose: 18.0 mg/kg/injection, schedule: Q01DX001 (ip), vehicle: gum acacia, higher = larger tumour); 23 % of control (endpoint: median tumor weight (est.), dose: 37.0 mg/kg/injection, schedule: Q01DX001 (ip), vehicle: gum acacia, higher = larger tumour); 7 % of control (endpoint: median tumor weight (est.), dose: 55.0 mg/kg/injection, schedule: Q01DX001 (ip), vehicle: gum acacia, higher = larger tumour).
`CC1CN(C(=O)CCl)c2ccccc2N1C(=O)CCl` (stereo not given): the T/C was 121 % of control (endpoint: mean tumor weight, dose: 1.0 mg/kg/injection, schedule: Q01DX011 (ip), vehicle: carboxymethylcellulose (CMC), higher = larger tumour); 94 % of control (endpoint: mean tumor weight, dose: 2.0 mg/kg/injection, schedule: Q01DX011 (ip), vehicle: carboxymethylcellulose (CMC), higher = larger tumour); 75 % of control (endpoint: mean tumor weight, dose: 4.0 mg/kg/injection, schedule: Q01DX011 (ip), vehicle: carboxymethylcellulose (CMC), higher = larger tumour); 124 % of control (endpoint: mean tumor weight, dose: 8.0 mg/kg/injection, schedule: Q01DX011 (ip), vehicle: carboxymethylcellulose (CMC), higher = larger tumour).
For `O=[N+]([O-])c1ccc([I+]c2ccccc2)cc1`, the T/C is 91 % of control under setting [1] and 95 % of control (endpoint: median survival time, dose: 25.0 mg/kg/injection, schedule: Q01DX009 (ip), vehicle: Klucel (hydroxypropylcellulose) (HPC), higher = longer survival).
For `O=c1[nH]cnc2nc[nH]c12`, the T/C is 121 % of control (endpoint: mean tumor weight, dose: 62.5 mg/kg/injection, schedule: Q01DX011 (ip), vehicle: saline, higher = larger tumour); 108 % of control (endpoint: mean tumor weight, dose: 125.0 mg/kg/injection, schedule: Q01DX011 (ip), vehicle: saline, higher = larger tumour); 107 % of control (endpoint: mean tumor weight, dose: 250.0 mg/kg/injection, schedule: Q01DX011 (ip), vehicle: saline, higher = larger tumour); 76 % of control (endpoint: mean tumor weight, dose: 500.0 mg/kg/injection, schedule: Q01DX011 (ip), vehicle: saline, higher = larger tumour).
As for `O=c1c(O)c(-c2ccc(O)c(O)c2)oc2cc(O)cc(O)c12`, the T/C (endpoint: mean tumor weight, dose: 12.5 mg/kg/injection, schedule: Q01DX011 (ip), vehicle: saline, higher = larger tumour) was 86 % of control; the T/C (endpoint: mean tumor weight, dose: 25.0 mg/kg/injection, schedule: Q01DX011 (ip), vehicle: saline, higher = larger tumour) was 71 % of control; the T/C (endpoint: mean tumor weight, dose: 50.0 mg/kg/injection, schedule: Q01DX011 (ip), vehicle: saline, higher = larger tumour) was 61 % of control; the T/C (endpoint: mean tumor weight, dose: 100.0 mg/kg/injection, schedule: Q01DX011 (ip), vehicle: saline, higher = larger tumour) is 100 % of control.
